# Biological target: FXR (Homo sapiens (Human), UniProt Q96RI1)
# Assay: FXR EC50 (FXR agonist activity reported with each example)
# Format: cell-based
# Sequence of FXR (Q96RI1 262-486): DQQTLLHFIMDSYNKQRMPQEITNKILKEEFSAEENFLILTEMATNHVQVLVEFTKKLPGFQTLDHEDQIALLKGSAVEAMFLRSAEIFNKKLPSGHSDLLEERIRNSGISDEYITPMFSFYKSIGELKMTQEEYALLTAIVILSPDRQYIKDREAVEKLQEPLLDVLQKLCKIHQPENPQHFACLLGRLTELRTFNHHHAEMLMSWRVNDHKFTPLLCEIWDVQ
row,Structure (SMILES),EC50 [nM]
1,O=C(O)c1ccc2nc(C34CCC(OCc5c(-c6ccccc6OC(F)(F)F)noc5C5CC5)(CC3)CC4)ncc2c1 [Example 62],1300
2,"O=C(O)c1ccc(CNC(=O)C23CCC(OCc4c(-c5c(Cl)cccc5Cl)noc4C4CC4)(CC2)CC3)cc1 [Example 141, 4-((4-((5-cyclopropyl-3-(2,6-dichlorophenyl)isoxazol-4-yl)methoxy)bicyclo[2.2.2]octane-1-carboxamido)methyl)benzoic acid]",2800
3,"O=C(O)c1ccc2nc(C34CCC(/C=C/c5c(-c6c(Cl)cccc6Cl)noc5C5CC5)(CC3)CC4)sc2c1 [Example 180, (E)-2-(4-(2-(5-cyclopropyl-3-(2,6-dichlorophenyl)isoxazol-4-yl)vinyl)bicyclo[2.2.2]octan-1-yl)benzo[d]thiazole-6-carboxylic acid]",43
4,"COc1ccc(-c2noc(C34CCC(/C=C/c5c(-c6c(Cl)cncc6Cl)noc5C5CC5)(CC3)OC4)n2)cc1C(=O)O [Example 496, (E)-5-(5-(1-(2-(5-cyclopropyl-3-(3,5-dichloropyridin-4-yl)isoxazol-4-yl)vinyl)-2-oxabicyclo[2.2.2]octan-4-yl)-1,2,4-oxadiazol-3-yl)-2-methoxybenzoic acid]",1000
5,"O=C(O)c1cccc(-c2nc(C34CCC(OCc5c(-c6ccccc6C(F)(F)F)noc5C5CC5)(CC3)CC4)no2)c1 [Example 20, 3-(3-(4-((5-cyclopropyl-3-(2-(trifluoromethyl)phenyl)isoxazol-4-yl)methoxy)bicyclo[2.2.2]octan-1-yl)-1,2,4-oxadiazol-5-yl)benzoic acid]",510
6,"CS(=O)(=O)NC(=O)c1ccc(-c2noc(C34CCC(OCc5c(-c6c(Cl)cccc6Cl)noc5C5CC5)(CC3)CC4)n2)cc1 [Example 3, 4-(5-(4-((5-cyclopropyl-3-(2,6-dichlorophenyl)isoxazol-4-yl)methoxy)bicyclo[2.2.2]octan-1-yl)-1,2,4-oxadiazol-3-yl)-N-(methylsulfonyl)benzamide]",890
7,O=C(O)c1ccn2c(C#CC34CCC(OCc5c(-c6c(Cl)cncc6Cl)noc5C5CC5)(CC3)CC4)cnc2c1 [Example 393],270
8,"O=C(O)c1ccc2nc(C34CCC(/C=C\c5c(-c6c(Cl)cccc6Cl)noc5C5CC5)(CC3)CC4)sc2c1 [Example 181, (Z)-2-(4-(2-(5-cyclopropyl-3-(2,6-dichlorophenyl)isoxazol-4-yl)vinyl)bicyclo[2.2.2]octan-1-yl)benzo[d]thiazole-6-carboxylic acid]",780
9,O=C(O)c1cc(OCC23CCC(OCc4c(-c5c(Cl)cncc5Cl)noc4C4CC4)(CC2)CC3)ccc1F [Example 277],47
10,"O=C(O)c1cc(F)cc(-c2noc(C34CCC(OCc5c(-c6c(Cl)cncc6Cl)noc5C5CC5)(CC3)CC4)n2)c1 [Example 458, 3-(5-(4-((5-cyclopropyl-3-(3,5-dichloropyridin-4-yl)isoxazol-4-yl)methoxy)bicyclo[2.2.2]octan-1-yl)-1,2,4-oxadiazol-3-yl)-5-fluorobenzoic acid]",85
11,O=C(O)c1cccc(/C=C/C23CCC(COCc4c(-c5c(Cl)cccc5Cl)noc4C4CC4)(CC2)CO3)c1 [Example 200],220
12,CN(C)c1cc(C(=O)O)nc2ccc(OCC34CCC(OCc5c(-c6c(Cl)cncc6Cl)noc5C5CC5)(CC3)CC4)cc12 [Example 330],1500
13,"O=C(O)c1cc(-c2noc(C34CCC(/C=C/c5c(-c6c(Cl)cncc6Cl)noc5C5CC5)(CC3)OC4)n2)cc(C(F)(F)F)c1 [Example 494, (E)-3-(5-(1-(2-(5-cyclopropyl-3-(3,5-dichloropyridin-4-yl)isoxazol-4-yl)vinyl)-2-oxabicyclo[2.2.2]octan-4-yl)-1,2,4-oxadiazol-3-yl)-5-(trifluoromethyl)benzoic acid]",130
14,"O=C(O)c1cccc(C23CCC(COCc4c(-c5c(Cl)cccc5Cl)noc4C4CC4)(CC2)CO3)c1 [Example 195, 3-(4-(((5-cyclopropyl-3-(2,6-dichlorophenyl)isoxazol-4-yl)methoxy)methyl)-2-oxabicyclo[2.2.2]octan-1-yl)benzoic acid]",47
15,"O=C(O)c1cc(-c2noc(C34CCC(/C=C/c5c(-c6c(Cl)cncc6Cl)noc5C5CC5)(CC3)CC4)n2)ccc1OC(F)F [Example 446, (E)-5-(5-(4-(2-(5-cyclopropyl-3-(3,5-dichloropyridin-4-yl)isoxazol-4-yl)vinyl)bicyclo[2.2.2]octan-1-yl)-1,2,4-oxadiazol-3-yl)-2-(difluoromethoxy)benzoic acid]",350
16,O=C(O)c1cc(C(F)(F)F)c2nc(C34CCC(OCc5c(-c6c(Cl)cncc6Cl)noc5C5CC5)(CC3)CC4)ccc2c1 [Example 370],56
17,O=C(O)c1c(OC2CCC2)cc(Cl)c2nc(C34CCC(OCc5c(-c6c(Cl)cncc6Cl)noc5C5CC5)(CC3)CC4)ccc12 [Example 429],4
18,O=C(O)c1cc(OCC(CO)CCl)c2cc(OCC34CCC(OCc5c(-c6c(Cl)cncc6Cl)noc5C5CC5)(CC3)CC4)ccc2n1 (stereo not shown) [Example 356],110
19,"O=C(O)c1cc(OCC23CCC(COCc4c(-c5c(Cl)cncc5Cl)noc4C4CC4)(CC2)CC3)cc(C(F)(F)F)c1 [Example 464, 3-((4-(((5-cyclopropyl-3-(3,5-dichloropyridin-4-yl)isoxazol-4-yl)methoxy)methyl)bicyclo[2.2.2]octan-1-yl)methoxy)-5-(trifluoromethyl)benzoic acid]",300
20,"COc1ccc(-c2noc(C34CCC(OCc5c(-c6c(Cl)cncc6Cl)noc5C5CC5)(CC3)CO4)n2)cc1C(=O)O [Example 455, 5-(5-(4-((5-cyclopropyl-3-(3,5-dichloropyridin-4-yl)isoxazol-4-yl)methoxy)-2-oxabicyclo[2.2.2]octan-1-yl)-1,2,4-oxadiazol-3-yl)-2-methoxybenzoic acid]",290
21,O=C(O)c1cc(C(F)(F)F)c2cc(OCC34CCC(OCc5c(-c6ccccc6C(F)(F)F)noc5C5CC5)(CC3)CC4)ccc2n1 [Example 288],250
22,"Cn1cc(C(=O)O)c2ccc(C34CCC(OCc5c(-c6c(Cl)cccc6Cl)noc5C5CC5)(CC3)CC4)nc21 [Example 135, 6-(4-((5-cyclopropyl-3-(2,6-dichlorophenyl)isoxazol-4-yl)methoxy)bicyclo[2.2.2]octan-1-yl)-1-methyl-1H-pyrrolo[2,3-b]pyridine-3-carboxylic acid]",9
23,O=C(O)c1ccc(-c2noc(C34CCC(OCc5c(-c6c(Cl)cncc6Cl)noc5C5CC5)(CC3)CO4)n2)cc1 [Example 218],160
24,"COc1ccc(-c2noc(C34CCC(OCc5c(-c6ccccc6OC(F)(F)F)noc5C5CC5)(CC3)CC4)n2)cc1C(=O)O [Example 4, 5-(5-(4-((5-cyclopropyl-3-(2-(trifluoromethoxy)phenyl)isoxazol-4-yl)methoxy)bicyclo[2.2.2]octan-1-yl)-1,2,4-oxadiazol-3-yl)-2-methoxybenzoic acid]",110
25,"COc1cc(C(=O)O)nc2ccc(OCC34CCC(/C=C/c5c(-c6c(Cl)cncc6Cl)noc5C5CC5)(CC3)CC4)cc12 [Example 508, (E)-6-((4-(2-(5-cyclopropyl-3-(3,5-dichloropyridin-4-yl)isoxazol-4-yl)vinyl)bicyclo[2.2.2]octan-1-yl)methoxy)-4-methoxyquinoline-2-carboxylic acid]",100

# Reference: patent publication US10730863B2, “Bridged bicyclic compounds as farnesoid X receptor modulators” (BRISTOL-MYERS SQUIBB COMPANY, priority 2017, dated 2020)
